pIC50: −log10 of the molar value. One block for each compound: values may come before it.
How the values were obtained:
Mus musculus [1] = test: Antiobesity activity in diet-induced obese C57BL/6 mouse assessed as change in body weight at 30 mg/kg, po qd for 10 days (reference value: 2.8 +/- 0.3 g); assay type: functional
Acyl-CoA desaturase 1 = target: T1, Acyl-CoA desaturase 1 (Rattus norvegicus, UniProt P07308); test: Inhibition of SCD1 in Sprague-Dawley rat liver microsomes using stearoyl-[9,10-3H]-CoA as substrate
T1 sequence (P07308 whole entry): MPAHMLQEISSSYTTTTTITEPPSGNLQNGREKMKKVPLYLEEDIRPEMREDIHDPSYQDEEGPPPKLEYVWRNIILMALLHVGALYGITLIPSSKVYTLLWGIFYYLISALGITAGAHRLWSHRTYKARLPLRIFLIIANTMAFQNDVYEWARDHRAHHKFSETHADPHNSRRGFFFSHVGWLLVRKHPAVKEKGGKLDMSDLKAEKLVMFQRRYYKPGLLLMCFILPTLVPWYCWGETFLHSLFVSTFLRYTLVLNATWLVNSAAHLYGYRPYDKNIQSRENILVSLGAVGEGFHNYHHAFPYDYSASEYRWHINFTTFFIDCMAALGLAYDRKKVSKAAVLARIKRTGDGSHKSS

[2] = Metabolic stability in human liver microsomes assessed as compound remaining measured at 10 mins; assay type: ADME; conditions: read-out: Stability
[3] = Metabolic stability in rat liver microsomes assessed as compound remaining measured at 10 mins; assay type: ADME; conditions: read-out: Stability
Stearoyl-CoA desaturase = target: T2, Stearoyl-CoA desaturase (Homo sapiens, UniProt O00767); test: Inhibition of SCD1 in human A431 cells assessed as [13C]-palmitic acid conversion to [13C]-palmitoleic acid after 4 hrs by LC/MS analysis; assay type: cell-based, A-431
T2 sequence (O00767 whole entry): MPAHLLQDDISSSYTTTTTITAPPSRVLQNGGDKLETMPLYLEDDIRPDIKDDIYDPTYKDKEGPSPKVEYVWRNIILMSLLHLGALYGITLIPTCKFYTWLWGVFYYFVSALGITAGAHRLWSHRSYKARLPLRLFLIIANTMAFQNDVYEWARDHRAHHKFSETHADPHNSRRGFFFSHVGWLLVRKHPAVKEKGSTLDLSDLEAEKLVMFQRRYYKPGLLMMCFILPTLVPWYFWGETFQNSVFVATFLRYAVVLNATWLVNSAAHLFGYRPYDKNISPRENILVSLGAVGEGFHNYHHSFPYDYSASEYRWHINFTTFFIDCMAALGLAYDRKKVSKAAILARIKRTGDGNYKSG

Rattus norvegicus [4] = test: Toxicity in Zucker fa/fa rat assessed as change in food intake at 1 to 3 mg/kg after 26 days; assay type: organism-based; parameters: dose 1-3 mg/kg; conditions: in vivo, 624 h
Rattus norvegicus [5] = test: Antiobesity activity in Zucker fa/fa rat assessed as effect on body weight gain at 1 mg/kg measured on day 22 (reference value: 142 +/- 4 g); assay type: functional
Rattus norvegicus [6] = test: Antiobesity activity in Zucker fa/fa rat assessed as reduction in body weight gain at 10 mg/kg after 26 days relative to control; assay type: functional; parameters: scale not given: the % may be the effect or the level left
Rattus norvegicus [7] = test: Antiobesity activity in Zucker fa/fa rat assessed as reduction in body weight gain at 1 mg/kg after 26 days relative to control; assay type: functional; parameters: scale not given: the % may be the effect or the level left
Rattus norvegicus [8] = species on record: Rattus norvegicus; test: Antiobesity activity in Zucker fa/fa rat assessed as decrease in C16:1 to C16:0 plasma desaturation index after 26 days; assay type: functional, organism-based
Rattus norvegicus [9] = test: Antiobesity activity in Zucker fa/fa rat assessed as effect on body weight gain at 3 mg/kg measured on day 8 (reference value: 61 +/- 7 g); assay type: functional
Rattus norvegicus [10] = test: Antiobesity activity in Zucker fa/fa rat assessed as effect on body weight gain at 3 mg/kg measured on day 15 (reference value: 103 +/- 4 g); assay type: functional
Rattus norvegicus [11] = test: Antiobesity activity in Zucker fa/fa rat assessed as C16:1 to C16:0 plasma desaturation index at 3 mg/kg after 26 days (reference value: 0.183 +/- 0.012); assay type: functional
[12] = AUC (24 hrs) in Zucker fa/fa rat at 10 mg/kg, po; assay type: ADME, organism-based; parameters: time < 24 hr, dose 10 mg/kg, route oral; conditions: plasma
Rattus norvegicus [13] = test: Antiobesity activity in Zucker fa/fa rat assessed as effect on body weight gain at 3 mg/kg measured on day 26 (reference value: 161 +/- 8 g); assay type: functional
Rattus norvegicus [14] = test: Antiobesity activity in Zucker fa/fa rat assessed as effect on body weight gain at 10 mg/kg measured on day 26 (reference value: 161 +/- 8 g); assay type: functional
[15] = Oral bioavailability in Zucker fa/fa rat at 10 mg/kg; assay type: ADME, organism-based; conditions: in vivo
Rattus norvegicus [16] = test: Antiobesity activity in Zucker fa/fa rat assessed as effect on body weight gain at 1 mg/kg measured on day 26 (reference value: 161 +/- 8 g); assay type: functional
Rattus norvegicus [17] = test: Antiobesity activity in Zucker fa/fa rat assessed as C18:1 to C18:0 plasma desaturation index at 10 mg/kg after 26 days (reference value: 2.16 +/- 0.07); assay type: functional
Rattus norvegicus [18] = test: Antiobesity activity in Zucker fa/fa rat assessed as effect on body weight gain at 3 mg/kg measured on day 22 (reference value: 142 +/- 4 g); assay type: functional
Rattus norvegicus [19] = species on record: Rattus norvegicus; test: Antiobesity activity in Zucker fa/fa rat assessed as reduction in body weight gain after 26 days; assay type: functional, organism-based
Rattus norvegicus [20] = test: Antiobesity activity in Zucker fa/fa rat assessed as effect on body weight gain at 10 mg/kg measured on day 8 (reference value: 61 +/- 7 g); assay type: functional
[21] = AUC (24 hrs) in Sprague-Dawley rat at 10 mg/kg, po; assay type: ADME, organism-based; parameters: time < 24 hr, dose 10 mg/kg, route oral; conditions: plasma
[22] = Volume of distribution in Sprague-Dawley rat at 2 mg/kg, iv; assay type: ADME, organism-based; parameters: dose 2 mg/kg, route intravenous; conditions: in vivo
Rattus norvegicus [23] = test: Hepatotoxicity in Zucker fa/fa rat assessed as increase in AST level at 1 to 10 mg/kg; assay type: toxicity, organism-based; parameters: dose 1-10 mg/kg; conditions: in vivo
[24] = Cmax in Zucker fa/fa rat at 10 mg/kg, po; assay type: ADME, organism-based; parameters: dose 10 mg/kg, route oral; conditions: in vivo
[25] = Oral bioavailability in Sprague-Dawley rat at 10 mg/kg; assay type: ADME, organism-based; conditions: in vivo
Rattus norvegicus [26] = test: Antiobesity activity in Zucker fa/fa rat assessed as effect on body weight gain at 1 mg/kg measured on day 15 (reference value: 103 +/- 4 g); assay type: functional
[27] = Cmax in Sprague-Dawley rat at 10 mg/kg, po; assay type: ADME, organism-based; parameters: dose 10 mg/kg, route oral; conditions: in vivo
Mus musculus [28] = test: Toxicity in diet-induced obese C57BL/6 mouse assessed as narrow eye fissure at 30 mg/kg, po; assay type: organism-based; parameters: dose 30 mg/kg, route oral; conditions: in vivo
Rattus norvegicus [29] = species on record: Rattus norvegicus; test: Antiobesity activity in Zucker fa/fa rat assessed as decrease in C18:1 to C18:0 plasma desaturation index after 26 days; assay type: functional, organism-based
[30] = Clearance in Sprague-Dawley rat at 2 mg/kg, iv; assay type: ADME, organism-based; parameters: dose 2 mg/kg, route intravenous; conditions: in vivo
Rattus norvegicus [31] = test: Toxicity in Zucker fa/fa rat assessed as narrow eye fissure at 10 mg/kg; assay type: organism-based; parameters: dose 10 mg/kg; conditions: in vivo
Rattus norvegicus [32] = test: Antiobesity activity in Zucker fa/fa rat assessed as effect on body weight gain at 10 mg/kg measured on day 15 (reference value: 103 +/- 4 g); assay type: functional
Rattus norvegicus [33] = test: Antiobesity activity in Zucker fa/fa rat assessed as effect on body weight gain at 1 mg/kg measured on day 8 (reference value: 61 +/- 7 g); assay type: functional
Rattus norvegicus [34] = test: Hepatotoxicity in Zucker fa/fa rat assessed as increase in ALT level at 1 to 10 mg/kg; assay type: toxicity, organism-based; parameters: dose 1-10 mg/kg; conditions: in vivo
Rattus norvegicus [35] = test: Antiobesity activity in Zucker fa/fa rat assessed as effect on body weight gain at 10 mg/kg measured on day 22 (reference value: 142 +/- 4 g); assay type: functional
Rattus norvegicus [36] = test: Toxicity in Zucker fa/fa rat assessed as reduction in food intake at 10 mg/kg after 22 days relative to control; assay type: organism-based; parameters: dose 10 mg/kg; scale not given: the % may be the effect or the level left; conditions: in vivo, 528 h
Rattus norvegicus [37] = test: Antiobesity activity in Zucker fa/fa rat assessed as C16:1 to C16:0 plasma desaturation index at 10 mg/kg after 26 days (reference value: 0.183 +/- 0.012); assay type: functional
Rattus norvegicus [38] = test: Antiobesity activity in Zucker fa/fa rat assessed as reduction in body weight gain at 3 mg/kg after 26 days relative to control; assay type: functional; parameters: scale not given: the % may be the effect or the level left

SMILES: OCc1ccc(-c2ccc(N3CCC(N4CCc5ccc(F)cc54)CC3)nn2)cn1
- Activity (Mus musculus [1]): -2.2 g

SMILES: Cc1ccc(-c2ccc(N3CCC(N4CCc5ccc(F)cc54)CC3)nn2)cn1
- pIC50 (Acyl-CoA desaturase 1): 7.89

SMILES: CCOCCn1cc(-c2ccc(N3CCC(N4CCc5ccc(F)cc54)CC3)nn2)cn1
- remaining at 10 min [2]: < 50%
- remaining at 10 min [3]: < 50%

SMILES: Cc1ccc(-c2ccc(N3CCC(N4CCc5ccc(F)cc54)CC3)nn2)cc1
- pIC50 (Stearoyl-CoA desaturase): 7.96

SMILES: CN(C)c1ccc(-c2ccc(N3CCC(N4CCc5ccc(F)cc54)CC3)nn2)cn1
- pIC50 (Stearoyl-CoA desaturase): 7.52
- pIC50 (Acyl-CoA desaturase 1): 7.77

SMILES: CCCn1cc(-c2ccc(N3CCC(N4CCc5ccc(F)cc54)CC3)nn2)cn1
- remaining at 10 min [2]: < 50%
- remaining at 10 min [3]: < 50%

SMILES: Cn1cc(-c2ccc(N3CCC(n4ncc5ccc(F)cc54)CC3)nn2)cn1
- pIC50 (Stearoyl-CoA desaturase): 7.29
- Activity (Mus musculus [1]): -3.3 g

SMILES: Cc1cnc(-c2ccc(N3CCC(N4CCc5ccc(F)cc54)CC3)nn2)s1
- pIC50 (Stearoyl-CoA desaturase): 7.92

The next lines start with results.

- pIC50 (Stearoyl-CoA desaturase): 8.05
- remaining at 10 min [2]: < 50%
- remaining at 10 min [3]: < 50%
- pIC50 (Acyl-CoA desaturase 1): 8.10
SMILES: CCOc1cnn(-c2ccc(N3CCC(N4CCc5ccc(F)cc54)CC3)nn2)c1

- pIC50 (Stearoyl-CoA desaturase): 7.52
SMILES: CCn1cc(-c2ccc(N3CCC(N4CCc5ccc(F)cc54)CC3)nn2)cn1

- AUC at 24 h [12]: 10800 ng·h/mL
- bioavailability [15]: 11%
- AUC at 24 h [21]: 38800 ng·h/mL
- Vd [22]: 0.52 L/kg
- Cmax [24]: 1600 ng/mL
- bioavailability [25]: 105%
- Cmax [27]: 4400 ng/mL
- clearance [30]: 3.3 mL/min/kg
SMILES: Cn1cc(-c2ccc(N3CCC(N4CCc5ccc(F)cc54)CC3)nn2)cn1
- Activity (Rattus norvegicus [4]): Non-toxic
- Activity (Rattus norvegicus [5]): 116 g
- Activity (Rattus norvegicus [6]): 51%
- Activity (Rattus norvegicus [7]): 17%
- Activity (Rattus norvegicus [8]): Dose-dependent effect
- Activity (Rattus norvegicus [9]): 44 g
- Activity (Rattus norvegicus [10]): 80 g
- Activity (Rattus norvegicus [11]): 0.088
- Activity (Rattus norvegicus [13]): 125 g
- Activity (Rattus norvegicus [14]): 78 g
- Activity (Rattus norvegicus [16]): 133 g
- Activity (Rattus norvegicus [17]): 0.92
- Activity (Rattus norvegicus [18]): 112 g
- Activity (Rattus norvegicus [19]): Dose-dependent effect
- Activity (Rattus norvegicus [20]): 29 g
- Activity (Mus musculus [1]): -2.1 g
- Activity (Rattus norvegicus [23]): Non-toxic
- Activity (Rattus norvegicus [26]): 80 g
- Activity (Mus musculus [28]): Toxic
- Activity (Rattus norvegicus [29]): Dose-dependent effect
- Activity (Rattus norvegicus [31]): Toxic
- Activity (Rattus norvegicus [32]): 57 g
- Activity (Rattus norvegicus [33]): 42 g
- Activity (Rattus norvegicus [34]): Non-toxic
- Activity (Rattus norvegicus [35]): 72 g
- Activity (Rattus norvegicus [36]): 10%
- Activity (Rattus norvegicus [37]): 0.078
- Activity (Rattus norvegicus [38]): 22%

- pIC50 (Acyl-CoA desaturase 1): 7.66
SMILES: OCCn1cc(-c2ccc(N3CCC(N4CCc5ccc(F)cc54)CC3)nn2)cn1
- Activity (Mus musculus [1]): 0.5 g

- pIC50 (Stearoyl-CoA desaturase): 8.22
- pIC50 (Acyl-CoA desaturase 1): 7.77
SMILES: OCc1cnn(-c2ccc(N3CCC(N4CCc5ccc(F)cc54)CC3)nn2)c1
- Activity (Mus musculus [1]): 1.2 g
